Data reported in patent US4605744A, “Imidazole derivatives” (Hoffmann-La Roche Inc., priority 1985, dated 1986).
Structures can show the parent of a compound that is named as a salt. Where two headings read alike, the source gives them in different places.

Key:
S. pyogenes 4 = experiment: In vivo antibacterial activity (PD50); conditions: Streptococcus pyogenes, 4, sc, read-out: PD50
E. coli 4 = experiment: In vivo antibacterial activity (PD50); conditions: Escherichia coli, sc, Table 9
S. pneumoniae 6301 = experiment: In vivo antibacterial activity (PD50); conditions: Streptococcus pneumoniae, sc, Table 9
E. coli 736 = experiment: In vivo activity alone and in combination (PD50, FIC); conditions: Escherichia coli, sc, alone
E. coli 5152 = experiment: In vivo antibacterial activity (PD50); conditions: Escherichia coli, 5152, sc
S. pneumoniae SC = experiment: In vivo antibacterial activity (PD50); conditions: Streptococcus pneumoniae
S. pyogenes 503-782 = experiment: In vivo antibacterial activity (PD50); conditions: Streptococcus pyogenes, 503782; sc; Table 9
S. aureus Smith = experiment: In vivo antibacterial activity (PD50); conditions: Staphylococcus aureus, sc
P. aeruginosa POW151 = experiment: In vivo antibacterial activity (PD50); conditions: Pseudomonas aeruginosa, sc, Table 9
S. faecalis C1 = experiment: In vivo antibacterial activity (PD50); conditions: sc; for ED50: Enterococcus faecalis, C1
E. aerogenes 8 = experiment: In vivo antibacterial activity (PD50)
P. aeruginosa 503-56 = experiment: In vivo antibacterial activity (PD50); conditions: Pseudomonas aeruginosa, 50356, sc
E. aerogenes 83 = experiment: In vivo antibacterial activity (PD50); conditions: Klebsiella aerogenes, sc, Table 9
S. marcescens S5 = experiment: In vivo antibacterial activity (PD50); conditions: Serratia marcescens, sc, Table 9
S. aureus Giorgio = experiment: In vivo antibacterial activity (PD50); conditions: Staphylococcus aureus; sc; Table 9
P. aeruginosa 6719 = experiment: In vivo antibacterial activity (PD50); conditions: Pseudomonas aeruginosa, 6719, sc
E. cloacae 6951 = experiment: In vivo antibacterial activity (PD50); conditions: Enterobacter cloacae, 6951, sc, 2 treatments
P. aeruginosa 6148B = experiment: In vivo antibacterial activity (PD50); conditions: Pseudomonas aeruginosa, sc
C. freundii 8ASM = experiment: In vivo antibacterial activity (PD50); conditions: Citrobacter freundii, sc, challenge 1000 LD50s, 1 treatment, Table 11
S. schottmuelleri = experiment: In vivo antibacterial activity (PD50); conditions: sc; challenge 163 LD50s; 1 treatment; Table 11
Method: (§1) In Tables 9-14, the results of the in vivo activity against certain microorganisms of compounds I, M and N as given. […] The results in these Tables and the PD50 's were determined by the procedure set forth on page 160 in Beskid et al., Antimicrobial Agents and Chemotherapy, Vol. 20, No. 2 pp. 159-167 (Aug. 1981) for "in vivo studies".

E. cloacae 214 = experiment: In vivo antibacterial activity (PD50); conditions: Enterobacter cloacae, sc, challenge 3.8 LD50s, 2 treatments, Table 11
Method: as §1

E. coli 387-1 = experiment: In vivo antibacterial activity (PD50); conditions: Escherichia coli, 3871; sc; challenge 127 LD50s; 1 treatment; Table 11
S. marcescens S3 = experiment: In vivo antibacterial activity (PD50); conditions: Serratia marcescens, S3, sc, read-out: PD50
K. pneumoniae 8357 = experiment: animal or person; format: in vivo; conditions: Klebsiella pneumoniae, 8357, sc, read-out: PD50
P. mirabilis 190 = experiment: In vivo antibacterial activity (PD50); conditions: Proteus mirabilis, sc, challenge 10^4 LD50s, 1 treatment, Table 11
P. vulgaris 100 = experiment: In vivo antibacterial activity (PD50); conditions: Proteus vulgaris; sc; challenge 100 LD50s; 1 treatment; Table 11
[1] = Klebsiella aerogenes, 8, sc, Table 9, read-out: PD50
[2] = sc, challenge 100 LD50s, 2 treatments, Table 10
[3] = challenge 2717 LD50s, 2 treatments, Table 10
[4] = challenge 48 LD50s, 2 treatments, Table 10
[5] = challenge 100 LD50s, 2 treatments, Table 10
[6] = challenge 4.7 LD50s, 2 treatments, Table 10
[7] = challenge 2290 LD50s, 2 treatments, Table 11
[8] = challenge 4780 LD50s, 2 treatments, Table 11
[9] = challenge 70 LD50s, 2 treatments, Table 11
[10] = challenge 10 LD50s, 1 treatment, Table 11
[11] = Klebsiella aerogenes, 8, sc, read-out: PD50, sc, challenge 10 LD50s, 2 treatments, Table 11
[12] = challenge 50 LD50s, 2 treatments, Table 11
[13] = challenge 32 LD50s, 2 treatments, Table 11

For `CC1(C)S[C@@H]2[C@H](N=CN3CCC(CCCn4ccnc4N)CC3)C(=O)N2[C@H]1C(=O)O` [I, [2S-(2alpha,5alpha,6beta)]-6-[[[4-[3-(2-amino-1H-imidazol-1-yl)propyl]piperidinyl]methylene]amino]-3,3-dimethyl-7-oxo-4-thia-1-azabicyclo[3.2.0]hpetane-2-carboxylic acid hydrochloride], the ED50 (S. pyogenes 4; sc, Table 9) was 11 mg/kg, the ED50 (E. coli 4) was 1.9 mg/kg and the ED50 (S. pneumoniae 6301) was greater than 250 mg/kg. It also gave an ED50 (E. coli 736) of 0.05 mg/kg, an ED50 (E. coli 5152; Table 9) greater than 250 mg/kg and an ED50 (S. pneumoniae SC; read-out: PD50) of 3.6 mg/kg. It also gave an ED50 (S. pyogenes 503-782) of 59 mg/kg, an ED50 (S. aureus Smith; Table 9) of 61 mg/kg and an ED50 (P. aeruginosa POW151) of 111 mg/kg. For the same compound, the ED50 (S. faecalis C1; Table 9) was greater than 250 mg/kg, the ED50 (E. aerogenes 8; [1]) was greater than 250 mg/kg and the ED50 (P. aeruginosa 503-56; Table 9) was greater than 250 mg/kg. For the same compound, the ED50 (E. aerogenes 83) was greater than 250 mg/kg, the ED50 (S. marcescens S5) was greater than 250 mg/kg and the ED50 (S. aureus Giorgio) was greater than 250 mg/kg.
For `CC1(C)S[C@@H]2[C@H](N=CN3CCC(CC4=NCCN4)CC3)C(=O)N2[C@H]1C(=O)O` [M, [2S-(2alpha,5alpha,6beta)]-6-[[[4-[(4,5-dihydro-1H-imidazol-2-yl)methyl]-1-piperidinyl]methylene]amino]-3,3-dimethyl-7-oxo-4-thia-1-azabicyclo[3.2.0]heptane-2-carboxylic acid hydrochloride], the ED50 (S. pyogenes 4; [2]) was less than 2 mg/kg, the ED50 (P. aeruginosa 6719; challenge 2249 LD50s, 3 treatments, Table 10) was 34 mg/kg and the ED50 (E. coli 5152; [3]) was 134 mg/kg. It also gave an ED50 (E. cloacae 6951; challenge 562 LD50s, Table 10) of 15 mg/kg, an ED50 (S. aureus Smith; [4]) of less than 5 mg/kg and an ED50 (S. aureus Smith; [5]) of 6.7 mg/kg. The ED50 (E. aerogenes 8; Klebsiella aerogenes, 8, sc, read-out: PD50, sc, challenge 24 LD50s, 2 treatments, Table 10) was 60 mg/kg, the ED50 (P. aeruginosa 503-56; [6]) was 67 mg/kg and the ED50 (P. aeruginosa 503-56; [5]) was 100 mg/kg. The ED50 (P. aeruginosa 6148B; challenge 4.5 LD50s, 3 treatments, Table 10) was less than 20 mg/kg and the ED50 (P. aeruginosa 6148B; challenge 33 LD50s, 3 treatments, Table 10) was less than 20 mg/kg.
`CC1(C)S[C@@H]2[C@H](/N=C/N3CCCCCC3)C(=O)N2[C@H]1C(=O)O` [Amdinocillin, amdinocillin, reference compound] showed an ED50 (S. pyogenes 4; sc, Table 9) of 60 mg/kg, an ED50 (S. pyogenes 4; sc, challenge 3.3 LD50s, 2 treatments, Table 11) of 11 mg/kg and an ED50 (S. pyogenes 4; [2]) of 8.1 mg/kg. For the same compound, the ED50 (C. freundii 8ASM) was 0.76 mg/kg, the ED50 (E. coli 4) was 4.6 mg/kg and the ED50 (S. pneumoniae 6301) was 192 mg/kg. It also gave an ED50 (P. aeruginosa 6719; [7]) of less than 20 mg/kg, an ED50 (E. coli 5152; Table 9) greater than 250 mg/kg and an ED50 (E. coli 5152; [3]) of 84 mg/kg. The ED50 (E. coli 5152; [8]) was 150 mg/kg, the ED50 (E. cloacae 6951; challenge 562 LD50s, Table 10) was 18 mg/kg and the ED50 (E. cloacae 6951; challenge 3162 LD50s, Table 11) was 2.5 mg/kg. For the same compound, the ED50 (S. schottmuelleri) was 0.25 mg/kg, the ED50 (E. cloacae 214) was less than 10 mg/kg and the ED50 (S. pneumoniae SC; Table 9, read-out: PD50) was less than 2 mg/kg. The ED50 (E. coli 387-1) was less than 0.2 mg/kg, the ED50 (S. marcescens S3) was 2.7 mg/kg and the ED50 (S. pyogenes 503-782) was 80 mg/kg. For the same compound, the ED50 (S. aureus Smith; Table 9) was 69 mg/kg, the ED50 (S. aureus Smith; [4]) was 22 mg/kg and the ED50 (S. aureus Smith; [9]) was 13 mg/kg. It also gave an ED50 (S. aureus Smith; [5]) of 12 mg/kg, an ED50 (P. aeruginosa POW151) of 143 mg/kg and an ED50 (S. faecalis C1; Table 9) greater than 250 mg/kg. It also gave a PD50 (S. faecalis C1; [10]) greater than 250 mg/kg, an ED50 (E. aerogenes 8; [11]) of 167 mg/kg and an ED50 (E. aerogenes 8; [1]) greater than 250 mg/kg. For the same compound, the ED50 (P. aeruginosa 503-56; Table 9) was greater than 250 mg/kg, the ED50 (P. aeruginosa 503-56; [6]) was greater than 250 mg/kg and the ED50 (P. aeruginosa 503-56; [12]) was greater than 250 mg/kg. The ED50 (P. aeruginosa 503-56; [5]) was greater than 250 mg/kg, the ED50 (K. pneumoniae 8357) was 6.7 mg/kg and the ED50 (E. aerogenes 83) was greater than 250 mg/kg. For the same compound, the ED50 (P. mirabilis 190) was 117 mg/kg, the ED50 (S. marcescens S5) was greater than 250 mg/kg and the ED50 (P. aeruginosa 6148B; [13]) was greater than 250 mg/kg. The ED50 (S. aureus Giorgio) was greater than 250 mg/kg and the ED50 (P. vulgaris 100) was 45 mg/kg.
In the case of `CC1(C)S[C@@H]2[C@H](N=CN3CCC(CCC4=NCCN4)CC3)C(=O)N2[C@H]1C(=O)O` [N, [2S-(2alpha,5alpha,6beta)]-6-[[[4-[4,5-dihydro-1H-imidazol-2-yl)ethyl]-1-piperidinyl]methylene]amino]-3,3-dimethyl-7-oxo-4-thia-1-azabicyclo[3.2.0]heptane-2-carboxylic acid hydrochloride], the ED50 (S. pyogenes 4) is reported as 4.3 mg/kg, the ED50 (C. freundii 8ASM) is reported as 0.22 mg/kg and the ED50 (P. aeruginosa 6719; [7]) is reported as 22 mg/kg. For the same compound, the ED50 (E. coli 5152; [8]) was 30 mg/kg, the ED50 (E. cloacae 6951; challenge 3162 LD50s, Table 11) was less than 2 mg/kg and the ED50 (S. schottmuelleri) was less than 0.05 mg/kg. The ED50 (E. cloacae 214) was less than 10 mg/kg, the ED50 (E. coli 387-1) was less than 0.2 mg/kg and the ED50 (S. marcescens S3) was less than 0.5 mg/kg. The ED50 (S. aureus Smith; [9]) was 12 mg/kg, the ED50 (S. faecalis C1; [10]) was 62 mg/kg and the ED50 (E. aerogenes 8; [11]) was greater than 250 mg/kg. The ED50 (P. aeruginosa 503-56; [12]) was 43 mg/kg, the ED50 (K. pneumoniae 8357) was 6.2 mg/kg and the ED50 (P. mirabilis 190) was 140 mg/kg. For the same compound, the ED50 (P. aeruginosa 6148B; [13]) was 37 mg/kg and the ED50 (P. vulgaris 100) was 67 mg/kg.
